This note sets out measurements from patent publication US9943516B2, “Inhibitors of IRAK4 activity” (MERCK SHARP & DOHME CORP., priority 2014, dated 2018).

Molecules are shown by their SMILES.

Sequence of IRAK4 (Q9NWZ3 whole entry): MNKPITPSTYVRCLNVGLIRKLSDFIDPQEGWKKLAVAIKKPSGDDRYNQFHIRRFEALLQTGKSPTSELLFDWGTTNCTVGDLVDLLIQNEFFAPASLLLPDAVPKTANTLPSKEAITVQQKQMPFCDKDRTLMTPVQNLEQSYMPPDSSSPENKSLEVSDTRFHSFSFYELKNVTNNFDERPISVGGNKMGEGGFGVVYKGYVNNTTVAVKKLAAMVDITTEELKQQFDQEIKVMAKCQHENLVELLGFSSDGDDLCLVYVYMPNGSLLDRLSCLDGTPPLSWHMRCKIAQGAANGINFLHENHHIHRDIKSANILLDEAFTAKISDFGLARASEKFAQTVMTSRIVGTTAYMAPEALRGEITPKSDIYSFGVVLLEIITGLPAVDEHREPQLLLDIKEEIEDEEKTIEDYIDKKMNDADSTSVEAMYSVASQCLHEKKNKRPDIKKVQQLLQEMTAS

The test addresses IRAK4 (Homo sapiens (Human), UniProt Q9NWZ3). The test is described as follows: IRAK4 Kinase Assay (IMAP fluorescence polarization). The following applies: 0.5 nM GST tagged IRAK4, 100 μM ATP, 30 minutes at 25° C. In kind it is biochemical. The method, then:
The kinase activity of IRAK4 is determined by its ability to catalyze the phosphorylation of a fluorescent polypeptide substrate. The extent of phosphorylation is measured using the IMAP technology (Molecular Devices) where the phosphorylated fluorescent substrate binds to the large M(III)-based nanoparticles which reduces the rotational speed of the substrate and thus increases its fluorescent polarization (FP).
20 μL reaction mixture contains 10 mM TriHCl, pH 7.2, 0.5 nM GST tagged IRAK4 (SignalChem), 100 nM fluorescent peptide substrate (RP7030, Molecular Devices), 100 μM ATP, 1 mM DDT, 1 mM MgCl2, and 0.01% Tween 20. The reaction is initiated by the addition of ATP. After incubation for 30 minutes at 25° C., 60 μL of Progressive IMAP Reagent (Molecular Devices) is added to stop the reaction. Change in RP7030's FP is determined by a FP reader (Analyst HT, LJL BioSystems).
Background: In fluorescence polarisation assays a small probe gives low polarisation when free and higher when bound to something large.
`OC1CCCC(c2ccc3ncnc(N[C@H]4CC[C@H](N5CCOCC5)CC4)c3c2)C1` (single isomer, unassigned) [Example 4-1, 3-(4-(((trans)-4-Morpholinocyclohexyl)amino)quinazolin-6-yl)cyclohexanol] gave a 50% inhibitory concentration (IC50) of 39 nM.

On to `OC1CCCC(c2ccc3ncnc(N[C@H]4CC[C@H](N5CCOCC5)CC4)c3c2)C1` (single isomer, unassigned) [Example 4-3, 3-(4-(((trans)-4-Morpholinocyclohexyl)amino)quinazolin-6-yl)cyclohexanol], for which 11 nM corresponded to half-maximal inhibition (IC50).

The compound `Cc1c(C2CC2)ccc2ncnc(N[C@H]3CC[C@H](N4CCOCC4)CC3)c12` [Example 1-1, 6-Cyclopropyl-5-methyl-N-(trans-4-morpholinocyclohexyl)quinazolin-4-amine] yielded an IC50 of 345 nM.

On to `CN(C)C1CCC(Nc2ncnc3ccc(C4CC4)cc23)CC1` (stereo not shown) [Example 1-2, N′-(6-cyclopropylquinazolin-4-yl)-N,N-dimethylcyclohexane-1,4-diamine], for which 12 nM corresponded to half-maximal inhibition (IC50).

Compound `c1nc(N[C@H]2CC[C@H](N3CCOCC3)CC2)c2cc(C3CC3)ccc2n1` [Example 1-3, 6-cyclopropyl-N-(trans-4-morpholin-4-ylcyclohexyl)quinazolin-4-amine] returned a 50% inhibitory concentration (IC50) of 5 nM.

As to `Fc1cc2ncnc(N[C@H]3CC[C@H](N4CCOCC4)CC3)c2cc1C1CC1` [Example 1-4, 6-cyclopropyl-7-fluoro-N-(trans-4-morpholin-4-ylcyclohexyl)quinazolin-4-amine], half-maximal inhibition (IC50) was put at 12 nM.

As for `CC1(c2ccc3ncnc(N[C@H]4CC[C@H](N5CCOCC5)CC4)c3c2)CC1` [Example 1-5, 6-(1-methylcyclopropyl)-N-(trans-4-morpholin-4-ylcyclohexyl)quinazolin-4-amine], the IC50 is 52 nM.

With `c1nc(N[C@H]2CC[C@H](N3CCOCC3)CC2)c2cc(C3CCC3)ccc2n1` [Example 1-6, 6-cyclobutyl-N-(trans-4-morpholin-4-ylcyclohexyl)quinazolin-4-amine], the IC50 turned out to be 3 nM.

For the compound `c1nc(N[C@H]2CC[C@H](N3CCOCC3)CC2)c2cc(C3CCCC3)ccc2n1` [Example 1-7, 6-cyclopentyl-N-(trans-4-morpholin-4-ylcyclohexyl)quinazolin-4-amine], inhibition was half-maximal at 5 nM (IC50).

In turn, `c1nc(N[C@H]2CC[C@H](N3CCOCC3)CC2)c2cc(C3CCCCC3)ccc2n1` [Example 1-8, 6-cyclohexyl-N-(trans-4-morpholin-4-ylcyclohexyl)quinazolin-4-amine] registered an IC50 of 19 nM.

As for `c1nc(N[C@H]2CC[C@H](N3CCOCC3)CC2)c2cc(C3COC3)ccc2n1` [Example 2-1, N-((trans)-4-morpholinocyclohexyl)-6-(oxetan-3-yl)quinazolin-4-amine], the IC50 was determined as 32 nM.

Take `c1nc(N[C@H]2CC[C@H](N3CCOCC3)CC2)c2cc(C3CCOC3)ccc2n1` (stereo partly drawn) [Example 2-2, N-(trans-4-morpholin-4-ylcyclohexyl)-6-(tetrahydrofuran-3-yl)quinazolin-4-amine]: the IC50 came out at 18 nM.

The compound `c1nc(N[C@H]2CC[C@H](N3CCOCC3)CC2)c2cc(C3CCCO3)ccc2n1` (stereo partly drawn) [Example 3-1, N-((trans)-4-morpholinocyclohexyl)-6-(tetrahydrofuran-2-yl)quinazolin-4-amine] displayed an IC50 of 170 nM.

For the compound `N#CC1CCC(c2ccc3ncnc(N[C@H]4CC[C@H](N5CCOCC5)CC4)c3c2)CC1` (stereo partly drawn) [Example 3-2, 4-{4-[(trans-4-morpholin-4-ylcyclohexyl)amino]quinazolin-6-yl}cyclohexanecarbonitrile], the IC50 amounted to 169 nM.

The compound `FC1(F)CCC(c2ccc3ncnc(N[C@H]4CC[C@H](N5CCOCC5)CC4)c3c2)CC1` [Example 3-3, 6-(4,4-difluorocyclohexyl)-N-(trans-4-morpholin-4-ylcyclohexyl)quinazolin-4-amine] gave an IC50 of 71 nM.

Take `c1nc(N[C@H]2CC[C@H](N3CCOCC3)CC2)c2cc(C3CCOCC3)ccc2n1` [Example 3-4, N-(trans-4-morpholin-4-ylcyclohexyl)-6-(tetrahydro-2H-pyran-4-yl)quinazolin-4-amine]: the IC50 was 91 nM.

The compound `c1nc(N[C@H]2CC[C@H](N3CCOCC3)CC2)c2cc(C3CCCOC3)ccc2n1` (stereo partly drawn) [Example 3-5, N-(trans-4-morpholin-4-ylcyclohexyl)-6-(tetrahydro-2H-pyran-3-yl)quinazolin-4-amine] gave an IC50 of 13 nM.

`O=C(O)C1CCC(c2ccc3ncnc(N[C@H]4CC[C@H](N5CCOCC5)CC4)c3c2)CC1` (stereo partly drawn) [Example 3-6, 4-{4-[(trans-4-morpholin-4-ylcyclohexyl)amino]quinazolin-6-yl}cyclohexanecarboxylic acid] had an IC50 of 98 nM.

For `OC1CCCC(c2ccc3ncnc(N[C@H]4CC[C@H](N5CCOCC5)CC4)c3c2)C1` (stereo partly drawn) [Example 4-2, 3-(4-(((trans)-4-Morpholinocyclohexyl)amino)quinazolin-6-yl)cyclohexanol], inhibition was half-maximal at 55 nM (IC50).

The term IC50 denotes the concentration needed to halve the response being measured.
